Test results: US20010018422A1, “Dolastatin 15 derivatives” (BASF Aktiengesellschaft, priority 1999, published 2001)

Key:
[1] = tested on: tumor cells such as the HT-29 colon carcinoma or LX-1 lung tumor; assay: Cytotoxicity, microculture tetrazolium assay (MTT); assay type: cell-based; conditions: 48 hours incubation, T/C of 50%, cell line not given
Description: Cytotoxicity was measured using a standard methodology for adherent cell lines, such as the microculture tetrazolium assay (MTT). Details of this assay have been published (Alley, M. C. et al., Cancer Research 48: 589-601, 1988). Exponentially growing cultures of tumor cells such as the HT-29 colon carcinoma or LX-1 lung tumor were used to make microtiter plate cultures. Cells were seeded at 5000-20,000 cells per well in 96-well plates (in […] of media), and grown overnight at 37° C. Test compounds were added, in 10-fold dilutions varying from 10^−4 M to 10^−10 M. Cells were then incubated for 48 hours. To determine the number of viable cells in each well, the MTT dye was added ([…] of a 3 mg/mL solution of 3-(4,5-dimethylthiazol-2-yl)-2,5-diphenyltetrazolium bromide in saline). This mixture was incubated at 37° C. for 5 hours, and then […] of 25% SDS, pH 2, was added to each well. After an overnight incubation, the absorbance of each well at 550 nm was read using an ELISA reader. The values for the mean+/−SD of data from replicated wells were calculated, using the formula % T/C (% viable cells treated/control). The concentration of test compound which gives a T/C of 50% growth inhibition was designated as the IC50.

[2] = synthetic Dolastatin 15; cited from earlier work
[3] = tested on: National Cancer Institute's P388 lymphocytic leukemia (PS system) cell line; conditions: cited from earlier work

For “2-(Me2Val-Val-MeVal-Pro-NH)—C6H4—CO—CH3 [IV-1]”, the IC50 [1] was over 1000 nM.
Work on `CC(C)C(NC(=O)[C@H](C(C)C)N(C)C)C(=O)N(C)[C@H](C(=O)N1CCC[C@H]1C(=O)NC1CCCC1C(=O)NCc1ccccc1)C(C)C` (stereo partly drawn) [VII-2, Me2-Val-Val-MeVal-Pro-[cis-2-aminocyclopentanecarboxylic acid]-NHBn] yielded an IC50 [1] of over 1000 nM.
In the case of Dolastatin 15, the “solubility in aqueous systems” value [2] is listed as “poor solubility” and the “inhibition of growth of P388 cell line” value [3] is listed as “markedly inhibits the growth”.
Compound `CNC(=O)c1cccc(C2CCCC2)c1NC(=O)[C@@H]1CCCN1C(=O)[C@H](C(C)C)N(C)C(=O)[C@@H](NC(=O)[C@H](C(C)C)N(C)C)C(C)C` [Compound I-7, 2-(Me2ValVal-MeVal-ProNH)-3-cyclopentanyl-C6H3C(O)NHCH3] has an IC50 [1] of 400 nM.
`CON(C)C(=O)c1ccccc1NC(=O)[C@@H]1CCCN1C(=O)[C@H](C(C)C)N(C)C(=O)C(NC(=O)[C@H](C(C)C)N(C)C)C(C)C` (stereo partly drawn) [Compound I-60, (2)-(Me2Val-Val-MeVal-Pro-NH)—C6H4—CON(CH3)(OCH3)] showed an IC50 [1] of 400 nM.
